Series [1] has as its system Septoria tritici. In words: In vivo preventive test on Septoria tritici (leaf spot on wheat), Examples E, Q3 and R5. As to conditions: Zymoseptoria tritici, 576 h, 500 ppm of active ingredient; wheat, preventive spray, evaluated 24 days after inoculation; read-out: efficacy.
In series [2] the test system is Puccinia recondita. In words: In vivo preventive test on Puccinia recondita (brown rust on wheat), Examples C and R3. The settings on record: Puccinia recondita, 264 h; 500 ppm of active ingredient; wheat, preventive spray, evaluated 11 days after inoculation; read-out: efficacy.
Series [3] has as its system Leptosphaeria nodorum. In words: In vivo preventive Leptosphaeria nodorum test (wheat), Example N. As to conditions: Parastagonospora nodorum, 192 h, 500 ppm of active ingredient, preventive spray, evaluated 8 days after inoculation, read-out: efficacy. From the text:
After the spray coating has been dried, the plants are sprayed with a spore suspension of Leptosphaeria nodorum.

For series [4], the system named is Pyrenophora teres. In words: In vivo preventive test on Pyrenophora teres (net blotch on barley), Examples D, Q2 and R4. The settings on record: Pyrenophora teres, 336 h, 500 ppm of active ingredient, preventive spray, evaluated 14 days after inoculation, read-out: efficacy.
The subject of series [5] is Sphaerotheca fuliginea. In words: In vivo preventive test on Sphaerotheca fuliginea (powdery mildew on cucurbits), Examples F and R6. As to conditions: Podosphaera fuliginea, 360 h; 500 ppm of active ingredient; gherkin, preventive spray, evaluated 15 days after inoculation; read-out: efficacy.
For series [6], the system named is Fusarium nivale (var. majus). In words: In vivo preventive Fusarium nivale (var. majus) test (wheat), Example O. The settings on record: Microdochium nivale, 120 h, 500 ppm of active ingredient, preventive spray, evaluated 5 days after inoculation, read-out: efficacy. From the text: After the spray coating has been dried, the plants are slightly injured by using a sandblast and afterwards they are sprayed with a conidia suspension of Fusarium nivale (var. majus).

Series [7] in a line: Measurement of LogP values by HPLC on reversed phase columns (EEC directive 79/831 Annex V.A8). It is filed as physicochemical. As to conditions: method [a]: LC-UV, acidic range, 0.1% formic acid in water and acetonitrile as eluent; Table 1. The protocol:
Measurement of Log P values was performed as outlined above.

The test system of series [8] is Uromyces appendiculatus. In words: In vivo preventive test on Uromyces appendiculatus (bean rust), Examples G and R7. As to conditions: 264 h, 500 ppm of active ingredient, bean, preventive spray, evaluated 11 days after inoculation, read-out: efficacy.
Series [9] relates to Pyricularia oryzae. In words: whole plant or invertebrate. The settings on record: 192 h, read-out: efficacy. It is filed as in vivo.
In series [10] the test system is Blumeria graminis fsp. hordei. The series can be described thus: In vivo preventive Blumeria test (barley), Example K. As to conditions: 168 h, 500 ppm of active ingredient, preventive spray, evaluated 7 days after inoculation, read-out: efficacy. From the text: After the spray coating has been dried, the plants are dusted with spores of Blumeria graminis fsp. hordei.

Series [11] has as its system Venturia inaequalis. The series can be described thus: In vivo preventive Venturia test (apples), Example J. As to conditions: 240 h, read-out: efficacy.
Experimental: After the spray coating has dried on, the plants are inoculated with an aqueous conidia suspension of the causal agent of apple scab (Venturia inaequalis) and then remain for 1 day in an incubation cabinet at approximately 20° C. and a relative atmospheric humidity of 100%.
The plants are then placed in a greenhouse at approximately 21° C. and a relative atmospheric humidity of approximately 90%.
The test is evaluated 10 days after the inoculation.
The subject of series [12] is Alternaria brassicae. In words: In vivo preventive test on Alternaria brassicae (leaf spot on radish), Examples A and R1. As to conditions: Alternaria brassicae, 144 h, 500 ppm of active ingredient, preventive spray, evaluated 6 days after inoculation, read-out: efficacy.
The subject of series [13] is Phakopsora pachyrhizi. The series can be described thus: In vivo preventive Phakopsora test (soybeans), Example I. The settings on record: 168 h, 100 ppm of active ingredient, preventive spray, evaluated 7 days after inoculation, read-out: efficacy.
Series [14] concerns Botrytis cinerea. The series can be described thus: In vivo preventive test on Botrytis cinerea (grey mould) on gherkin, Examples B, Q1 and R2. As to conditions: Botrytis cinerea, 500 ppm of active ingredient, preventive spray, evaluated 4 to 5 days after inoculation, read-out: efficacy.
For series [15], the system named is Alternaria solani. The series can be described thus: In vivo preventive Alternaria test (tomatoes), Example H. The settings on record: 72 h, 100 ppm of active ingredient, preventive spray, evaluated 3 days after inoculation, read-out: efficacy.
The test system of series [16] is Fusarium graminearum. In words: whole plant or invertebrate. In kind it is in vivo. As to conditions: in Hordeum vulgare, 120 h, read-out: efficacy.

The term chromatographic logP denotes lipophilicity estimated from chromatographic retention. A higher chromatographic logP goes with a more lipophilic compound.

Take `OC(Cc1c(Cl)ccnc1Cl)(Cn1cncc1Cl)C1(Cl)CC1` (stereo not drawn) [Example I-11]: the pest or weed control at 500 ppm fell in the range of 90 to 100% in [1]; 80 to 89% in series [2]; 80 to 89% in series [3]; 80 to 89% in series [4]; 90 to 100% in series [5]; 80 to 89% in series [6]. Also, the pest or weed control at 500 ppm lay in the range of 90 to 100% in series [8] and 80 to 89% in [9]. The chromatographic logP in [7] was found to be 2.02.
Take `OC(Cc1ccccc1F)(Cn1cncc1Br)C1(Cl)CC1` (stereo not drawn) [Example I-33]: the pest or weed control at 500 ppm in series [1] was 90 to 100%; in series [10], 90 to 100%; in series [2] it was 80 to 89%; in series [3] it was 90 to 100%; in [4], 80 to 89%; in series [5], 90 to 100%. For the same molecule, the pest or weed control at 500 ppm in [12], in [8] and in series [14] was 90 to 100% each time. This molecule also yielded a chromatographic logP in series [7] of 2.1. Further, the pest or weed control at 100 ppm in [11], in [13] and in series [15] was 90 to 100% throughout.
As to `N#Cc1cncn1CC(O)(Cc1ccc(Br)cc1Cl)C1(Cl)CC1` (stereo not drawn) [Example I-41], the pest or weed control at 500 ppm in series [1] was 90 to 100%; in series [10] it was 90 to 100%; in series [16] it was 90 to 100%; in [2], 90 to 100%; in [3], 70 to 79%; in series [5], 90 to 100%. For the same molecule, the pest or weed control at 500 ppm in series [6] is 80 to 89%; in series [8], 90 to 100%. The chromatographic logP in series [7] turned out to be 3.52.
With `OC(Cc1ccc(Br)cc1F)(Cn1cncc1Cl)C1(Cl)CC1` (stereo not drawn) [Example I-44], the pest or weed control at 500 ppm was in the range of 90 to 100% in series [1]; 90 to 100% in series [10]; 70 to 79% in series [16]; 80 to 89% in series [2]; 80 to 89% in series [3]; 90 to 100% in series [4]. For the same molecule, the pest or weed control at 500 ppm in series [5] is 90 to 100%; in series [8] it was 90 to 100%; in series [14], 90 to 100%; in [9] it was 70 to 79%. The molecule further showed a chromatographic logP in [7] of 2.64. Moreover, the pest or weed control at 100 ppm in series [11], in series [13] and in series [15] was 90 to 100% in each case.
For the molecule `N#Cc1cncn1CC(O)(Cc1cccc(Cl)c1Cl)C1(Cl)CC1` (stereo not drawn) [Example I-49], the pest or weed control at 500 ppm in [1] is 90 to 100%; in series [10] it was 90 to 100%; in [16], 70 to 79%; in series [2] it was 90 to 100%; in [3], 80 to 89%; in [4] it was 90 to 100%. In addition, the pest or weed control at 500 ppm was in the range of 90 to 100% in series [5], 80 to 89% in series [6], 90 to 100% in series [8] and 80 to 89% in series [9]. Besides, the chromatographic logP in [7] came to 3.25.
For the molecule `N#Cc1cncn1CC(O)(Cc1ccnc(Cl)c1Cl)C1(Cl)CC1` (stereo not drawn) [Example I-50], the pest or weed control at 500 ppm in [1] is 90 to 100%; in series [10] it was 90 to 100%; in [2], 80 to 89%; in series [4], 80 to 89%; in series [5], 90 to 100%; in [6] it was 90 to 100%. Besides, the pest or weed control at 500 ppm in [8] was 90 to 100%; in series [9] it was 70 to 79%. In addition, the chromatographic logP in [7] was found to be 2.47. In addition, the pest or weed control at 100 ppm in [11] lay within 80 to 89%; in series [13], 80 to 89%; in series [15] it was 70 to 79%.
Take `OC(Cc1ccncc1Cl)(Cn1cncc1Cl)C1(Cl)CC1` (stereo not drawn) [Example I-72]: the pest or weed control at 500 ppm in [1] is 90 to 100%; in [10] it was 90 to 100%; in series [16] it was 70 to 79%; in [2], 80 to 89%; in [3], 90 to 100%; in [4] it was 80 to 89%. Besides, the pest or weed control at 500 ppm in [5] lay within 90 to 100%; in [6], 90 to 100%; in [8] it was 90 to 100%; in series [14], 70 to 79%; in series [9] it was 90 to 100%. This molecule also gave a chromatographic logP in series [7] of 1.52.
`N#Cc1cncn1CC(O)(Cc1ccccc1C(F)(F)F)C1(Cl)CC1` (stereo not drawn) [Example I-88]: the pest or weed control at 500 ppm in series [1], in series [10], in series [16], in series [2], in series [4] and in [5] was 90 to 100% in each case. In addition, the values for the pest or weed control at 500 ppm in series [6] and in series [8] were 80 to 89% and 90 to 100%, respectively. This molecule also gave a chromatographic logP in series [7] of 3.15.
As for `N#Cc1cncn1CC(O)(Cc1ccc(F)c(F)c1)C1(Cl)CC1` (stereo not drawn) [Example I-109], the pest or weed control at 500 ppm in series [1], in series [10], in series [16], in series [2], in series [4] and in [5] was 90 to 100% each time. Besides, the pest or weed control at 500 ppm in series [6] lay in the range of 80 to 89%; in series [8], 90 to 100%. In series [7], this molecule yielded a chromatographic logP of 2.78.
For `N#Cc1cncn1CC(O)(Cc1ccnc(Cl)c1F)C1(Cl)CC1` (stereo not drawn) [Example I-152], the pest or weed control at 500 ppm in series [1] was in the range of 90 to 100%; in series [10] it was 90 to 100%; in [16], 70 to 79%; in series [2], 90 to 100%; in series [3], 70 to 79%; in series [4] it was 70 to 79%. In addition, the pest or weed control at 500 ppm in series [5], in series [6] and in series [8] was 90 to 100% each time. The molecule also showed a chromatographic logP in series [7] of 2.25.
`N#Cc1cncn1CC(O)(Cc1ccc(F)cc1Cl)C1(Cl)CC1` (stereo not drawn) [Example I-154]: the pest or weed control at 500 ppm in series [1], in series [10], in series [16], in series [2], in series [3] and in series [5] was 90 to 100% each time. Further, the pest or weed control at 500 ppm in series [6] lay in the range of 90 to 100%; in [8], 90 to 100%; in [14], 80 to 89%; in series [9], 70 to 79%. For the same molecule, the chromatographic logP in series [7] is 3.
For `OC(Cc1ccncc1F)(Cn1cncc1Cl)C1(Cl)CC1` (stereo not drawn) [Example I-164], the pest or weed control at 500 ppm in [1] fell in the range of 90 to 100%; in series [10], 90 to 100%; in series [2], 80 to 89%; in [4] it was 80 to 89%; in [5], 90 to 100%; in [6], 80 to 89%. The pest or weed control at 500 ppm in [8] was in the range of 90 to 100%; in series [14], 90 to 100%; in series [9] it was 70 to 79%. The molecule further displayed a chromatographic logP in [7] of 1.46.

The values are drawn from patent US10231453B2, “5-substituted imidazole derivatives” (BAYER CROPSCIENCE AKTIENGESELLSCHAFT, priority 2015, dated 2019).
